# Measured values published in ChEMBL document CHEMBL3616426 (Eur J Med Chem, 2015).
# Active and inactive are the calls of the source. No cut-off for these calls is given here.
# Key:
# [1] = test system: Rattus norvegicus; experiment: Antiosteoporotic activity in ovariectomized Sprague-Dawley rat assessed as trabecular separation at 3 ug/kg, po qd at 12th week by micro-CT analysis (reference value: 0.146 +/- 0.010 millimeter); type: functional, Trabecula
# [2] = test system: Rattus norvegicus; experiment: Antiosteoporotic activity in ovariectomized Sprague-Dawley rat assessed as serum osteocalcin level at 3 ug/kg, po qd at 18th week by enzyme immunoassay (reference value: 1118.9 +/- 37.77 ng/ml); type: functional
# [3] = test system: Rattus norvegicus; experiment: Antiosteoporotic activity in ovariectomized Sprague-Dawley rat assessed as bone mineral density recovery at 10 ug/kg, po qd measured at 18th week by micro-CT analysis relative to SHAM control; type: functional
# [4] = test system: Rattus norvegicus; experiment: Antiosteoporotic activity in ovariectomized Sprague-Dawley rat assessed as trabecular separation at 3 ug/kg, po qd at 18th week by micro-CT analysis (reference value: 0.234 +/- 0.021 millimeter); type: functional, Trabecula
# [5] = test system: Rattus norvegicus; experiment: Antiosteoporotic activity in ovariectomized Sprague-Dawley rat assessed as trabecular thickness recovery at 10 ug/kg, po qd measured at 18th week by micro-CT analysis relative to SHAM control; type: functional, Trabecula
# [6] = test system: Rattus norvegicus; experiment: Antiosteoporotic activity in ovariectomized Sprague-Dawley rat assessed as prevention of bone mineral density loss at 1 to 3 ug/kg, po qd measured at 6th to 18th week by micro-CT analysis relative to OVX rat; type: functional, organism-based
# [7] = test system: Rattus norvegicus; experiment: Antiosteoporotic activity in ovariectomized Sprague-Dawley rat assessed as trabecular separation recovery at 10 ug/kg, po qd measured at 18th week by micro-CT analysis relative to SHAM control; type: functional, organism-based; conditions: Trabecula
# [8] = test system: Rattus norvegicus; experiment: Antiosteoporotic activity in ovariectomized Sprague-Dawley rat assessed as trabecular thickness at 1 ug/kg, po qd at 18th week by micro-CT analysis (reference value: 0.103 +/- 0.0044 millimeter); type: functional, Trabecula
# [9] = test system: Rattus norvegicus; experiment: Antiosteoporotic activity in ovariectomized Sprague-Dawley rat assessed as decrease in serum osteocalcin level at 3 ug/kg, po qd at 18th week by enzyme immunoassay relative to SHAM control; type: functional, organism-based
# [10] = test system: Rattus norvegicus; experiment: Antiosteoporotic activity in ovariectomized Sprague-Dawley rat assessed as trabecular thickness at 3 ug/kg, po qd at 6th week by micro-CT analysis (reference value: 0.086 +/- 0.0069 millimeter); type: functional, Trabecula
# [11] = test system: Rattus norvegicus; experiment: Antiosteoporotic activity in ovariectomized Sprague-Dawley rat assessed as trabecular thickness at 3 ug/kg, po qd at 12th week by micro-CT analysis (reference value: 0.070 +/- 0.0063 millimeter); type: functional, Trabecula
# [12] = test system: Rattus norvegicus; experiment: Antiosteoporotic activity in ovariectomized Sprague-Dawley rat assessed as bone volume /tissue volume at 1 ug/kg, po qd at 12th week by micro-CT analysis (reference value: 31.61 +/- 2.39%); type: functional
# [13] = test system: Rattus norvegicus; experiment: Antiosteoporotic activity in ovariectomized Sprague-Dawley rat assessed as bone volume /tissue volume at 1 ug/kg, po qd at 6th week by micro-CT analysis (reference value: 41.33 +/- 5.04%); type: functional
# [14] = test system: Rattus norvegicus; experiment: Antiosteoporotic activity in ovariectomized Sprague-Dawley rat assessed as decrease in serum osteocalcin level at 10 ug/kg, po qd at 18th week by enzyme immunoassay relative to SHAM control; type: functional, organism-based
# [15] = test system: Rattus norvegicus; experiment: Antiosteoporotic activity in ovariectomized Sprague-Dawley rat assessed as trabecular thickness at 1 ug/kg, po qd at 12th week by micro-CT analysis (reference value: 0.070 +/- 0.0063 millimeter); type: functional, Trabecula
# [16] = test system: Rattus norvegicus; experiment: Antiosteoporotic activity in ovariectomized Sprague-Dawley rat assessed as serum osteocalcin level at 10 ug/kg, po qd at 18th week by enzyme immunoassay (reference value: 1118.9 +/- 37.77 ng/ml); type: functional
# [17] = test system: Mus musculus; experiment: Acute toxicity in ICR mouse assessed as survival at 5000 ug/kg, po after 2 weeks; type: organism-based; conditions: in vivo, 5 mg/kg, 336 h
# [18] = test system: Rattus norvegicus; experiment: Antiosteoporotic activity in ovariectomized Sprague-Dawley rat assessed as trabecular separation at 10 ug/kg, po qd at 18th week by micro-CT analysis (reference value: 0.234 +/- 0.021 millimeter); type: functional, Trabecula
# [19] = test system: Rattus norvegicus; experiment: Antiosteoporotic activity in ovariectomized Sprague-Dawley rat assessed as bone volume /tissue volume at 3 ug/kg, po qd at 12th week by micro-CT analysis (reference value: 31.61 +/- 2.39%); type: functional
# [20] = test system: Rattus norvegicus; experiment: Antiosteoporotic activity in ovariectomized Sprague-Dawley rat assessed as bone volume /tissue volume recovery at 10 ug/kg, po qd measured at 18th week by micro-CT analysis relative to SHAM control; type: functional
# [21] = test system: Rattus norvegicus; experiment: Antiosteoporotic activity in ovariectomized Sprague-Dawley rat assessed as bone volume /tissue volume at 3 ug/kg, po qd at 18th week by micro-CT analysis (reference value: 27.36 +/- 1.99%); type: functional
# [22] = n-octanol-water partition coefficient, log P of the compound after 24 hrs by HPLC analysis; type: physicochemical
# [23] = test system: Rattus norvegicus; experiment: Antiosteoporotic activity in ovariectomized Sprague-Dawley rat assessed as bone volume /tissue volume at 3 ug/kg, po qd at 6th week by micro-CT analysis (reference value: 41.33 +/- 5.04%); type: functional
# [24] = test system: Rattus norvegicus; experiment: Antiosteoporotic activity in ovariectomized Sprague-Dawley rat assessed as trabecular separation at 1 ug/kg, po qd at 18th week by micro-CT analysis (reference value: 0.234 +/- 0.021 millimeter); type: functional, Trabecula
# [25] = test system: Rattus norvegicus; experiment: Antiosteoporotic activity in ovariectomized Sprague-Dawley rat assessed as trabecular separation at 3 ug/kg, po qd at 6th week by micro-CT analysis (reference value: 0.116 +/- 0.010 millimeter); type: functional, Trabecula
# [26] = test system: Rattus norvegicus; experiment: Antiosteoporotic activity in ovariectomized Sprague-Dawley rat assessed as trabecular separation at 1 ug/kg, po qd at 6th week by micro-CT analysis (reference value: 0.116 +/- 0.010 millimeter); type: functional, Trabecula
# [27] = test system: Rattus norvegicus; experiment: Antiosteoporotic activity in ovariectomized Sprague-Dawley rat assessed as serum osteocalcin level at 1 ug/kg, po qd at 18th week by enzyme immunoassay (reference value: 1118.9 +/- 37.77 ng/ml); type: functional
# [28] = test system: Rattus norvegicus; experiment: Antiosteoporotic activity in ovariectomized Sprague-Dawley rat assessed as bone volume /tissue volume at 10 ug/kg, po qd at 6th week by micro-CT analysis (reference value: 41.33 +/- 5.04%); type: functional
# [29] = test system: Rattus norvegicus; experiment: Antiosteoporotic activity in ovariectomized Sprague-Dawley rat assessed as trabecular thickness at 10 ug/kg, po qd at 12th week by micro-CT analysis (reference value: 0.070 +/- 0.0063 millimeter); type: functional, Trabecula
# [30] = test system: Rattus norvegicus; experiment: Antiosteoporotic activity in ovariectomized Sprague-Dawley rat assessed as trabecular separation at 10 ug/kg, po qd at 6th week by micro-CT analysis (reference value: 0.116 +/- 0.010 millimeter); type: functional, Trabecula
# [31] = test system: Rattus norvegicus; experiment: Antiosteoporotic activity in ovariectomized Sprague-Dawley rat assessed as trabecular thickness at 3 ug/kg, po qd at 18th week by micro-CT analysis (reference value: 0.103 +/- 0.0044 millimeter); type: functional, Trabecula
compound,measurement,setting,value
O=C1c2cc(O)cc(O)c2[C@@H](c2ccc(O)cc2)[C@@H]1c1cc(O)cc(O)c1 [ISOPAUCIFLORAL F],Activity,[1],0.173 mm
same,Activity,[2],713.24 ng/mL
same,Activity,[3],90%
same,Activity,[4],0.183 mm
same,Activity,[5],78%
same,Activity,[6],inactive
same,Activity,[7],inactive
same,Activity,[8],0.106 mm
same,Activity,[9],Active
same,Activity,[10],0.092 mm
same,Activity,[11],0.085 mm
same,Activity,[12],31.46%
same,Activity,[13],40.38%
same,Activity,[14],Active
same,Activity,[15],0.086 mm
same,Activity,[16],702.2 ng/mL
same,Activity,[17],Non-toxic
same,Activity,[18],0.096 mm
same,Activity,[19],41.01%
same,Activity,[20],78%
same,Activity,[21],36.45%
same,logP at 24 h,[22],1.34
same,Activity,[23],52.56%
same,Activity,[24],0.183 mm
same,Activity,[25],0.097 mm
same,Activity,[26],0.104 mm
same,Activity,[27],812.1 ng/mL
same,Activity,[28],40.25%
same,Activity,[29],0.087 mm
same,Activity,[30],0.118 mm
same,Activity,[31],0.102 mm
